Each structure is given as a SMILES string.

In this test the target is Rv0183 (mtbMGL) (Mycobacterium tuberculosis, UniProt O07427). The experiment in a line: biochemical.
Sequence of Rv0183 (mtbMGL) (O07427 whole entry): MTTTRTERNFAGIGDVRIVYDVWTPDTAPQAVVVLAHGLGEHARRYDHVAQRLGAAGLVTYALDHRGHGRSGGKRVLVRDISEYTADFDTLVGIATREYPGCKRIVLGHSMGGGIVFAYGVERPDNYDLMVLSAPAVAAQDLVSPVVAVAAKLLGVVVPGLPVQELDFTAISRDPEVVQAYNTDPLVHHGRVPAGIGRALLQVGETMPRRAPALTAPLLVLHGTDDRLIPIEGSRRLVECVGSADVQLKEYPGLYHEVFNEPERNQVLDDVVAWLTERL
In general, IC50 refers to the point on the concentration scale where inhibition reaches its midpoint. Higher therefore signals weaker potency in that assay. `COc1ccc(-n2nc(C(=O)N3CC[C@@H](O)C3)cc2-c2ccccc2Cl)cc1` [ELF1, (R)-(5-(2-chlorophenyl)-1-(4-methoxyphenyl)-1H-pyrazol-3-yl)(3-hydroxypyrrolidin-1-yl)methanone]: half-maximal inhibition (IC50) was put at 9.55 µM.
As for `O=C(c1ccc(-c2cnc(-c3cccc(OC(F)(F)F)c3)o2)cc1)N1CC[C@@H](O)C1` [ELF8, (R)-(3-hydroxypyrrolidin-1-yl)(4-(2-(3-(trifluoromethoxy)phenyl)oxazol-5-yl)phenyl)methanone], half-maximal inhibition (IC50) was put at 4.26 µM. Compared with the last compound, the IC50 is about 2.2-fold lower.
`COc1ccc(Nc2cc(-n3cc(C(=O)N4CC[C@@H](O)C4)cn3)ncn2)cc1` [ELF5, (R)-(3-hydroxypyrrolidin-1-yl)(1-(6-((4-methoxyphenyl)amino)pyrimidin-4-yl)-1H-pyrazol-4-yl)methanone] gave an IC50 of 8.51 µM.

The values are drawn from article doi:10.1101/2025.06.12.659322v2 (biorxiv, 2025).
